Experimental data as given in patent US9358227B2, “Pharmaceutical uses of 6-amino quinazoline or 3-cyano quinoline derivatives” (Jiangsu Hengrui Medicine Co., Ltd., priority 2009, dated 2016).

Experiments:
[1] = system: xenografts of Calu-3 human lung cancer; test: Therapeutic effects against xenografts of Calu-3 human lung cancer in nude mice; assay type: in vivo, BALB/cA-nude mice
Method: BALB/cA-nude mice, 6 to 7 weeks old, ♀, purchased from Slaccas Experimental Animal LTD., CO.
Nude mice were hypodermic inoculated Calu-3 human lung cancer cell. After tumors grew to 150-250 mm^3, mice were randomly divided into teams (d0).
The volume of tumors and the weigh of the mice were measured and recorded for 2-3 times per week.
The calculation formula of the volume of tumor (V) is: V=½×a×b^2, a: length of tumor, b: width of tumor.

[2] = Pharmacokinetics assay in rats, intragastric; assay type: in vivo; details: both sexes, rat, plasma, po, SD rats, 25 mg/kg, read-out: Area Under Curve AUC
Method: The pharmacokinetic behavior of the compounds of the present invention was studied and evaluated in rats. 8 healthy adult SD rats, male and female in half, were purchased from SINO-BRITSH SIPPR/BK LAB. ANIMAL LTD., CO, License number: SCXK (Shanghai) 2003-0002 The right amount of compounds were weighted and grinded with 0.5% Sodium Carboxymethyl cellulose uniformly, suspended them with 1% tween 80 to 2.5 mg/mL of suspension before use. […] 8 Healthy adult SD rats, male and female in half, were divided into 2 groups. After an overnight fast, the rats were administered intragastrically at a dose of 25.0 mg/kg. […] The plasma samples were stored at −20° C. until analysis. The rats were fed 2 hours after administration. 50 μL of rat plasmas taken at various time points after administration were mixed with 50 μL of standard series solution to obtain plasma concentration of 50.0, 100, 200, 500, 1000, 2000, 5000 ng/mL. 150 μL, methanol was added and then the mixture was mixed for 3 minute using a vortexer and centrifuged for 10 minutes at 13,500 rpm. 10 μL of the supernatant was analyzed by LC-MS/MS. The main pharmacokinetic parameters were calculated by DAS 2.0 software.

[3] = high dose (200 mg/kg), nude mice, Calu-3 xenograft

Compound: CCOc1cc2ncc(C#N)c(Nc3ccc(OCc4ccccn4)c(Cl)c3)c2cc1NC(=O)/C=C/[C@@H]1CCCN1C [Example 1, (E)-N-[4-[[3-Chloro-4-(2-pyridylmethoxy)phenyl]amino]-3-cyano-7-ethoxy-6-quinolyl]-3-[(2S)-1-methylpyrrolidin-2-yl]prop-2-enamide]
- completely degraded fraction of the tumor [1, 3]: ⅙
- reduced fraction of the tumor volume [1, 3]: ⅙
- growth of Calu-3 human lung cancer ([1]; nude mice xenograft): markedly inhibited
- AUC [2]: 52600 ± 39000 ng·h/mL

Compound: CCOc1cc2ncc(C#N)c(Nc3ccc(OCc4ccccn4)c(Cl)c3)c2cc1NC(=O)/C=C/[C@H]1CCCN1C [Example 5, (E)-N-[4-[[3-Chloro-4-(2-pyridylmethoxy)phenyl]amino]-3-cyano-7-ethoxy-6-quinolyl]-3-[(2R)-1-methylpyrrolidin-2-yl]prop-2-enamide]
- AUC [2]: 52800 ± 23600 ng·h/mL
